Test results published in PubChem BioAssay (NCI).
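Tested at 5 concentrations; 48 h exposure; 96-well plates; endpoints linearly interpolated, else capped at highest concentration. GI50 marks 50% less growth. TGI: total growth inhibition.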

Tests used:
Assay in all cases: inhibition of tumour cell growth, NCI panel, 48 h
[1] = tested on: HOP-92 NSCLC
[2] = tested on: T-47D breast
[3] = tested on: SN12C renal
[4] = tested on: SF-268 CNS
[5] = tested on: CAKI-1 renal
[6] = tested on: KM12 colon
[7] = tested on: 786-0 renal
[8] = tested on: MDA-MB-231 breast
[9] = tested on: MCF7 breast
[10] = tested on: HL-60(TB) leukemia
[11] = tested on: HOP-62 NSCLC
[12] = tested on: HCC-2998 colon
[13] = tested on: NCI-H522 lung
[14] = tested on: M14 melanoma
[15] = tested on: SNB-75 CNS
[16] = tested on: K-562 leukemia
[17] = tested on: BT-549 breast
[18] = tested on: UO-31 renal
[19] = tested on: HCT-116 colon
[20] = tested on: SF-539 CNS
[21] = tested on: PC-3 prostate
[22] = tested on: A549 NSCLC
[23] = tested on: SK-OV-3 ovarian
[24] = tested on: NCI-H460 lung
[25] = tested on: SNB-19 CNS
[26] = tested on: IGROV1 ovarian
[27] = tested on: SF-295 CNS
[28] = tested on: SW-620 colon
[29] = tested on: SR leukemia
[30] = tested on: HS 578T breast
[31] = tested on: HCT-15 colon
[32] = tested on: ACHN renal
[33] = tested on: DU-145 prostate
[34] = tested on: RPMI-8226 leukemia
[35] = tested on: U251 CNS
[36] = tested on: UACC-62 melanoma
[37] = tested on: TK-10 renal
[38] = tested on: LOX IMVI melanoma
[39] = tested on: NCI-H226 lung
[40] = tested on: CCRF-CEM leukemia
[41] = tested on: OVCAR-4 ovarian
[42] = tested on: MOLT-4 leukemia
[43] = tested on: NCI-H23 lung
[44] = tested on: HT29 colon
[45] = tested on: OVCAR-5 ovarian
[46] = tested on: UACC-257 melanoma
[47] = tested on: SK-MEL-28 melanoma
[48] = tested on: OVCAR-8 ovarian
[49] = tested on: NCI/ADR-RES ovarian
[50] = tested on: COLO 205 colon
[51] = tested on: SK-MEL-5 melanoma
[52] = tested on: SK-MEL-2 melanoma
[53] = tested on: EKVX NSCLC

## COc1ccc(-c2cnc(-c3ccncc3-c3cccc(OC)c3)o2)cc1
[1]
  GI50: 403 nM
  TGI: 20200 nM
[2]
  GI50: 2580 nM
  TGI: 35100 nM
[3]
  GI50: 79.8 nM
  TGI: 16000 nM
[4]
  GI50: 78.3 nM
  TGI: 16900 nM
[5]
  GI50: 866 nM
  TGI: 33000 nM
[6]
  GI50: 47.1 nM
  TGI: 1820 nM
[7]
  GI50: 62.7 nM
  TGI: 15000 nM
[8]
  GI50: 59.1 nM
  TGI: 19300 nM
[9]
  GI50: 113 nM
  TGI: 12200 nM
[10]
  GI50: 24 nM
  TGI: 96.8 nM
[11]
  GI50: 53.1 nM
  TGI: 23800 nM
[12]
  GI50: 79.9 nM
  TGI: 14300 nM
[13]
  GI50: 19 nM
  TGI: 61.5 nM
[14]
  GI50: 30.4 nM
  TGI: 14200 nM
[15]
  GI50: 32.9 nM
  TGI: 23200 nM
[16]
  GI50: 28.8 nM
  TGI: 12800 nM
[17]
  GI50: 154 nM
  TGI: 13900 nM
[18]
  GI50: 89.6 nM
  TGI: 14200 nM
[19]
  GI50: 37.5 nM
  TGI: 11800 nM
[20]
  GI50: 26.8 nM
  TGI: 77.6 nM
[21]
  GI50: 37.9 nM
  TGI: 16900 nM
[22]
  GI50: 40.9 nM
  TGI: 11300 nM
[23]
  GI50: 42.4 nM
  TGI: 17100 nM
[24]
  GI50: 36.5 nM
  TGI: 4030 nM
[25]
  GI50: 45.1 nM
  TGI: 19500 nM
[26]
  GI50: 75.4 nM
  TGI: 18400 nM
[27]
  GI50: 29.4 nM
  TGI: 13800 nM
[28]
  GI50: 38.3 nM
  TGI: 19300 nM
[29]
  GI50: < 15.2 nM
  TGI: 13500 nM
[30]
  GI50: 35.4 nM
  TGI: 20200 nM
[31]
  GI50: 47.3 nM
  TGI: 14500 nM
[32]
  GI50: 138 nM
  TGI: 14700 nM
[33]
  GI50: 40.8 nM
  TGI: 12900 nM
[34]
  GI50: 38.7 nM
  TGI: 5750 nM
[35]
  GI50: 38.7 nM
  TGI: 13400 nM
[36]
  GI50: 50.8 nM
  TGI: 15500 nM
[37]
  GI50: 11700 nM
  TGI: 42100 nM
[38]
  GI50: 59.9 nM
  TGI: 15500 nM
[39]
  GI50: 153 nM
  TGI: 15600 nM
[40]
  GI50: 38.9 nM
  TGI: 16000 nM
[41]
  GI50: 677 nM
  TGI: 29200 nM
[42]
  GI50: 61.7 nM
  TGI: 17200 nM
[43]
  GI50: 38.3 nM
  TGI: 13000 nM
[44]
  GI50: 33 nM
  TGI: 10300 nM
[45]
  GI50: 80.9 nM
  TGI: 23500 nM
[46]
  GI50: 403 nM
  TGI: 15800 nM
[47]
  GI50: 63.9 nM
  TGI: 17800 nM
[48]
  GI50: 48.4 nM
  TGI: 15300 nM
[49]
  GI50: 26.5 nM
  TGI: 30100 nM
[50]
  GI50: 37.5 nM
  TGI: 1230 nM
[51]
  GI50: 37.9 nM
  TGI: 226 nM
[52]
  GI50: 39.7 nM
  TGI: 15200 nM
[53]
  GI50: 1040 nM
  TGI: 25100 nM
